Key:
[1] = molecular target: recombinant human HDAC6 (Homo sapiens (Human), UniProt Q9UBN7); assay: Enzymatic screening, HDAC6 inhibition (fluorogenic FdL_G substrate); assay type: biochemical
Method: (§1) For each test compound, 100× concentrated DMSO solutions at 8 doses were prepared and then diluted in assay buffer (25 mM Tris-HCl, pH 8, 130 mM NaCl, 0.05% Tween-20, 10% Glycerol) to obtain 5× concentrated solutions in relation to the final concentrations (typical final concentration range—6.4-200000 nM or 0.18-50000 nM, final DMSO content—1%). Then 10 μL solution of each test compound concentration were placed on a 96-well plate in triplicate and 15 μL of 3.33× concentrated enzyme solution in the assay buffer containing 3.33× concentrated BSA (final BSA concentration—2 mg/mL for HDAC4, HDAC5 and HDAC9 or 1 mg/mL for other isoforms) and in the case of HDAC6-3.33× concentrated TCEP (final TCEP concentration—200 μM) were added to each well. After a period of preincubation (incubation times and temperatures vary for different isoforms and are shown in table 1) 25 μL of solution containing the substrate were added. As substrate, FLUOR DE LYS® deacetylase substrate (Enzo Life Sciences, cat: BML-KI104, FdL), FLUOR DE LYS®-Green substrate (Enzo Life Sciences, cat: BML-KI572, FdL_G) or Boc-Lys(Tfa)-AMC (Bachem, cat: 4060676.005, Tfal)—2× concentrated solution in assay buffer were used. Following a reaction period (reaction times and temperatures vary for different isoforms and are reported in Table 1), 50 μL of the development solution consisting of concentrate FLUOR DE LYS® developer I (Enzo Life Sciences, ca: BML-KI105), diluted 200 times in buffer (50 mM Tris-HCl, pH 8, 137 mM NaCl, 2.7 mM KCl, 1 mM MgCl2) plus 2 μM TSA was added and, after 25 minutes at room temperature in the dark, using the Victor 1420 Multilabel Counter Perkin Elmer Wallac instrument, the fluorescence reading was carried out.

[2] = molecular target: recombinant human HDAC1 (Homo sapiens (Human), UniProt Q13547); assay: Enzymatic screening, HDAC1 inhibition (fluorogenic FdL_G substrate); assay type: biochemical
Method: as §1

Chain of recombinant human HDAC1 (Q13547 whole entry): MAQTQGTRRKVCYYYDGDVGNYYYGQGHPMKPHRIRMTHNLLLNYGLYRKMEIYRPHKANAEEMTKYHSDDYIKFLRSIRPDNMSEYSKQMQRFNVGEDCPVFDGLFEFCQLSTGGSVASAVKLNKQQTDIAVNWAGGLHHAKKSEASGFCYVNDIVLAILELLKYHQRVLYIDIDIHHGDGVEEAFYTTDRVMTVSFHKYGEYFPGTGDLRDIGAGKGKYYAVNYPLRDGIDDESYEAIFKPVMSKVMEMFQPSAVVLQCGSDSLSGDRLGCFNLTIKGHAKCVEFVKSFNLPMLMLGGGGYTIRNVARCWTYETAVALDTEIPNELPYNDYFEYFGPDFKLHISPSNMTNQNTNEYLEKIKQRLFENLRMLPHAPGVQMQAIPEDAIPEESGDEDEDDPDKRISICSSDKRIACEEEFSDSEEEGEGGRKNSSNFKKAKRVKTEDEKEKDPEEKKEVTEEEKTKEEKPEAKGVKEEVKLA
Chain of recombinant human HDAC6 (Q9UBN7 whole entry, canonical isoform): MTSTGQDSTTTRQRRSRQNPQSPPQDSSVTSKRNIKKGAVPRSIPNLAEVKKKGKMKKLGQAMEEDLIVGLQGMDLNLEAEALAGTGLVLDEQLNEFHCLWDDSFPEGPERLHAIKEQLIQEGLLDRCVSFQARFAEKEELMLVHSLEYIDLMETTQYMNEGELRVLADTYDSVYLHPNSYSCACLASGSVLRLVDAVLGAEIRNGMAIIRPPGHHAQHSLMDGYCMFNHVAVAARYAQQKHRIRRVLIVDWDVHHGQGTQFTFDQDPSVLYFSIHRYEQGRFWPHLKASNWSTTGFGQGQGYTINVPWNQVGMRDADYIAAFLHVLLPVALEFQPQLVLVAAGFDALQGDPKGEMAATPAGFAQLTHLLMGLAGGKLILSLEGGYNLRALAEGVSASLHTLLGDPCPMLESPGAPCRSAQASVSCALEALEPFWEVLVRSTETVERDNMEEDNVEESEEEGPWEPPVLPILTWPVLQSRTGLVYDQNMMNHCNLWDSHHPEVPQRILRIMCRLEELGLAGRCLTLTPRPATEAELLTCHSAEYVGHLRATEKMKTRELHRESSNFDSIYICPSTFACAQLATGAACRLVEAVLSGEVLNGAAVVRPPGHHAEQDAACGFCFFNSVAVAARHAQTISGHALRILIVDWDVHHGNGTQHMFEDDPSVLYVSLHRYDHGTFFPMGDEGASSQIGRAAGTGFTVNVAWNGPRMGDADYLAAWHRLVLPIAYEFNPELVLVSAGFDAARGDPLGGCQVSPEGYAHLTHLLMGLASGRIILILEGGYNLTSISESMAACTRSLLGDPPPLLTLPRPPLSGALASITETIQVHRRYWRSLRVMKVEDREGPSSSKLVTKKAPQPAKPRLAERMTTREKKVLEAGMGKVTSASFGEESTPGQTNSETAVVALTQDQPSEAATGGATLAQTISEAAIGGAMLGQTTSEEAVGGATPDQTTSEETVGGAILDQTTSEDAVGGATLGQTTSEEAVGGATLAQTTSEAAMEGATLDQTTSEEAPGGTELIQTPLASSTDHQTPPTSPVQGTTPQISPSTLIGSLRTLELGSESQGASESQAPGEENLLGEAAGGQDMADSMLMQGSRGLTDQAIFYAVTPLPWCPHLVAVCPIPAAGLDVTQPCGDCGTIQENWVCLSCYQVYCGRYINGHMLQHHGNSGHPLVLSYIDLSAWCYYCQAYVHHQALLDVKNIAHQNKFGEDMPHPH

Question: For `O=C1Nc2ccc(-c3cn(Cc4ccc(-c5nnc(C(F)F)o5)cc4)nn3)cc2NC12CCNCC2` [compound 271, 7′-(1-(4-(5-(difluoromethyl)-1,3,4-oxadiazol-2-yl)benzyl)-1H-1,2,3-triazol-4-yl)-1′,4′-dihydro-3′H-spiro[piperidine-4,2′-quinoxalin]-3′-one], which IC50 [1] is on record?
Answer: 43 nM

Question: What about the IC50 [2] of the same molecule?
Answer: > 200000 nM

Question: With `CN(Cc1ccc(-c2nc(Cc3c(F)cc(-c4nnc(C(F)F)o4)cc3F)no2)cc1)C(=O)C(F)F` [compound 206, N-(4-(3-(4-(5-(difluoromethyl)-1,3,4-oxadiazol-2-yl)-2,6-difluorobenzyl)-1,2,4-oxadiazol-5-yl)benzyl)-2,2-difluoro-N-methylacetamide] as the molecule, how does the IC50 [1] read?
Answer: 127 nM

Question: What about the IC50 [2] of the same molecule?
Answer: > 200000 nM

Question: `O=C(Nc1cccc(-c2cn(Cc3ccc(-c4nnc(C(F)F)o4)c(F)c3F)nn2)c1)N1CCOCC1` [compound 338, N-[3-[1-[[4-[5-(difluoromethyl)-1,3,4-oxadiazol-2-yl]-2,3-difluorophenyl]methyl]triazol-4-yl]phenyl]morpholine-4-carboxamide] was tested. Which IC50 [1] did it give?
Answer: 101 nM

Question: What about the IC50 [2] of the same molecule?
Answer: > 1e+06 nM

Question: For `O=C(Nc1cccc(-c2nnn(Cc3ccc(-c4nnc(C(F)F)o4)cc3)n2)c1)c1ccccc1` [compound 156, N-(3-(2-(4-(5-(difluoromethyl)-1,3,4-oxadiazol-2-yl)benzyl)-2H-tetrazol-5-yl)phenyl)benzamide], which IC50 [1] is on record?
Answer: 70 nM

Question: And the IC50 [2]?
Answer: > 200000 nM

Question: For `O=C1NCc2ccc(-c3cnn(Cc4ccc(-c5nnc(C(F)F)o5)cc4)c3)cc21` [compound 319, 6-[1-[[4-[5-(difluoromethyl)-1,3,4-oxadiazol-2-yl]phenyl]methyl]pyrazol-4-yl]-2,3-dihydroisoindol-1-one], which IC50 [1] is on record?
Answer: 87 nM

Question: What about the IC50 [2] of the same molecule?
Answer: > 1e+06 nM

Question: For `FC(F)c1nnc(-c2ccc(Cn3nnc(-c4cccc(-c5nc6c([nH]5)CNCC6)c4)n3)c(Cl)c2)o1` [compound 365, 2-[3-chloro-4-[[5-[3-(4,5,6,7-tetrahydro-3H-imidazo[4,5-c]pyridin-2-yl)phenyl]tetrazol-2-yl]methyl]phenyl]-5-(difluoromethyl)-1,3,4-oxadiazole], which IC50 [1] is on record?
Answer: 106 nM

Question: What about the IC50 [2] of the same molecule?
Answer: > 1e+06 nM

Question: Which IC50 [1] does the source give for `Nc1ccc(-c2cn(C(Cc3ccccc3)c3ccc(-c4nnc(C(F)F)o4)cc3)nn2)cn1` (stereo not shown) [compound 221, 5-(1-(1-(4-(5-(difluoromethyl)-1,3,4-oxadiazol-2-yl)phenyl)-2-phenylethyl)-1H-1,2,3-triazol-4-yl)pyridin-2-amine] here?
Answer: 157 nM

Question: What about the IC50 [2] of the same molecule?
Answer: > 200000 nM

Question: Which results are given for `O=C1Nc2ccc(-c3cn(Cc4ccc(-c5nnc(C(F)F)o5)cc4)nn3)cc2C12CCNC2` (stereo not shown) [compound 49, 5-(1-(4-(5-(difluoromethyl)-1,3,4-oxadiazol-2-yl)benzyl)-1H-1,2,3-triazol-4-yl)spiro[indoline-3,3′-pyrrolidin]-2-one]?
Answer: IC50 [1]: 21 nM; IC50 [2]: > 200000 nM

Question: With `Cn1c(N)nc2cc(-c3nnn(Cc4ccc(-c5nnc(C(F)F)o5)c(F)c4F)n3)ccc21` [compound 371, 5-[2-[[4-[5-(difluoromethyl)-1,3,4-oxadiazol-2-yl]-2,3-difluorophenyl]methyl]tetrazol-5-yl]-1-methylbenzimidazol-2-amine] as the molecule, how does the IC50 [1] read?
Answer: 25 nM

Question: What about the IC50 [2] of the same molecule?
Answer: > 1e+06 nM

Question: With `CN(Cc1ccncc1)Cc1ccc(-c2nnn(Cc3c(F)cc(-c4nnc(C(F)F)o4)cc3F)n2)cc1` [compound 201, N-(4-(2-(4-(5-(difluoromethyl)-1,3,4-oxadiazol-2-yl)-2,6-difluorobenzyl)-2H-tetrazol-5-yl)benzyl)-N-methyl-1-(pyridin-4-yl)methanamine] as the molecule, how does the IC50 [1] read?
Answer: 115 nM

Question: What about the IC50 [2] of the same molecule?
Answer: > 200000 nM

Question: `CNC(=O)Nc1ccc(-c2nnc(Cc3ccc(-c4nnc(C(F)F)o4)cc3)o2)cn1` [compd. 170, 1-(5-(5-(4-(5-(difluoromethyl)-1,3,4-oxadiazol-2-yl)benzyl)-1,3,4-oxadiazol-2-yl)pyridin-2-yl)-3-methylurea] was tested. Which IC50 [1] did it give?
Answer: 81 nM

Question: What about the IC50 [2] of the same molecule?
Answer: > 200000 nM

Question: Which IC50 [1] does the source give for `NCc1ccc(-c2cn(Cc3ccc(-c4nnc(C(F)F)o4)cc3)nn2)cn1` [compound 155, (5-(1-(4-(5-(difluoromethyl)-1,3,4-oxadiazol-2-yl)benzyl)-1H-1,2,3-triazol-4-yl)pyridin-2-yl)methanamine] here?
Answer: 69 nM

Question: And the IC50 [2]?
Answer: > 200000 nM

Question: Which IC50 [1] does the source give for `CN(C)C(=O)Nc1cc(-c2nnn(Cc3ccc(-c4nnc(C(F)F)o4)cc3)n2)ccc1O` [compound 31, 3-(5-(2-(4-(5-(difluoromethyl)-1,3,4-oxadiazol-2-yl)benzyl)-2H-tetrazol-5-yl)-2-hydroxyphenyl)-1,1-dimethylurea] here?
Answer: 14 nM

Question: What about the IC50 [2] of the same molecule?
Answer: > 200000 nM

Question: Which results are given for `Nc1ncnc2sc(-c3cn(Cc4ccc(-c5nnc(C(F)F)o5)cc4)nn3)cc12` [compound 178, 6-(1-(4-(5-(difluoromethyl)-1,3,4-oxadiazol-2-yl)benzyl)-1H-1,2,3-triazol-4-yl)thieno[2,3-d]pyrimidin-4-amine]?
Answer: IC50 [1]: 89 nM; IC50 [2]: > 200000 nM

Question: What does the source list for `Nc1ccc(-c2cn(Cc3ccc(-c4nnc(C(F)F)o4)nn3)nn2)cn1` [compound 198, 5-(1-((6-(5-(difluoromethyl)-1,3,4-oxadiazol-2-yl)pyridazin-3-yl)methyl)-1H-1,2,3-triazol-4-yl)pyridin-2-amine]?
Answer: IC50 [1]: 109 nM; IC50 [2]: > 200000 nM

Question: Which IC50 [1] does the source give for `CNc1ncc2cc(-c3cn(Cc4cc(F)c(-c5nnc(C(F)F)o5)cc4F)nn3)ccc2n1` [compound 391, 6-[1-({4-[5-(difluoromethyl)-1,3,4-oxadiazol-2-yl]-2,5-difluorophenyl}methyl)-1H-1,2,3-triazol-4-yl]-N-methylquinazolin-2-amine] here?
Answer: 217 nM

Question: What about the IC50 [2] of the same molecule?
Answer: 1e+06 nM

Question: With `FCc1nnc(-c2ccc(Cc3nc(-c4ccc(NC5=NCCN5)cc4)no3)cc2)o1` [compound 380] as the molecule, how does the IC50 [1] read?
Answer: 19 nM

Question: And the IC50 [2]?
Answer: > 1e+06 nM

Question: With `CN(Cc1ccncc1)Cc1ccc(-c2nnn(Cc3ccc(-c4nnc(C(F)F)o4)cc3)n2)cc1` [compound 215, N-(4-(2-(4-(5-(difluoromethyl)-1,3,4-oxadiazol-2-yl)benzyl)-2H-tetrazol-5-yl)benzyl)-N-methyl-1-(pyridin-4-yl)methanamine] as the molecule, how does the IC50 [1] read?
Answer: 151 nM

Question: And the IC50 [2]?
Answer: > 200000 nM

Question: Which results are given for `CC(C)(C)OC(=O)N1CCC2(CC1)C(=O)Nc1ccc(-c3cn(Cc4ccc(-c5nnc(C(F)F)o5)cc4)nn3)cc12` [compound 216, tert-butyl 5-(1-(4-(5-(difluoromethyl)-1,3,4-oxadiazol-2-yl)benzyl)-1H-1,2,3-triazol-4-yl)-2-oxospiro[indoline-3,4′-piperidine]-1′-carboxylate]?
Answer: IC50 [1]: 151 nM; IC50 [2]: > 200000 nM

Question: How did the IC50 [1] turn out when `Cn1c(N)nc2cc(-c3cn(Cc4ccc(-c5nnc(C(F)F)o5)c(F)c4F)nn3)ccc21` [compound 345, 5-[1-[[4-[5-(difluoromethyl)-1,3,4-oxadiazol-2-yl]-2,3-difluorophenyl]methyl]triazol-4-yl]-1-methylbenzimidazol-2-amine] was run?
Answer: 24 nM

Question: And the IC50 [2]?
Answer: 168000 nM

Question: Which results are given for `Cn1c(N)nc2cc(-c3cnn(Cc4ccc(-c5nnc(C(F)F)o5)cn4)c3)ccc21` [compound 320, 5-[1-[[5-[5-(difluoromethyl)-1,3,4-oxadiazol-2-yl]pyridin-2-yl]methyl]pyrazol-4-yl]-1-methylbenzimidazol-2-amine]?
Answer: IC50 [1]: 28 nM; IC50 [2]: > 1e+06 nM

Question: For `O=C(Nc1cccc(-c2cn(Cc3ccc(-c4nnc(C(F)F)o4)cc3)cn2)c1)N1CCOCC1` [compd. 267, N-(3-(1-(4-(5-(difluoromethyl)-1,3,4-oxadiazol-2-yl)benzyl)-1H-imidazol-4-yl)phenyl)morpholine-4-carboxamide], which IC50 [1] is on record?
Answer: 85 nM

Question: What about the IC50 [2] of the same molecule?
Answer: > 200000 nM

Question: How did the IC50 [1] turn out when `FC(F)c1nnc(-c2ccc(Cn3cc(-c4cccs4)nn3)nc2)o1` [compound 85, 2-(difluoromethyl)-5-(6-((4-(thiophen-2-yl)-1H-1,2,3-triazol-1-yl)methyl)pyridin-3-yl)-1,3,4-oxadiazole] was run?
Answer: 33 nM

Question: And the IC50 [2]?
Answer: > 200000 nM

Question: For `Fc1cc(-c2nnc(C(F)F)o2)cnc1Cn1nnc(-c2cccc(-c3nc4c([nH]3)CCNC4)c2)n1` [compound 353, 2-(difluoromethyl)-5-[5-fluoro-6-[[5-[3-(4,5,6,7-tetrahydro-1H-imidazo[4,5-c]pyridin-2-yl)phenyl]tetrazol-2-yl]methyl]pyridin-3-yl]-1,3,4-oxadiazole], which IC50 [1] is on record?
Answer: 42 nM

Question: What about the IC50 [2] of the same molecule?
Answer: > 1e+06 nM

Question: Which IC50 [1] does the source give for `[2H]C([2H])(c1ccc(-c2nnc(C(F)F)o2)cn1)n1cc(-c2ccc(N)nc2)nn1` [compound 362, 5-[1-[dideuterio-[5-[5-(difluoromethyl)-1,3,4-oxadiazol-2-yl]pyridin-2-yl]methyl]triazol-4-yl]pyridin-2-amine] here?
Answer: 18 nM

Question: And the IC50 [2]?
Answer: > 1e+06 nM

Question: Which results are given for `NC(=O)c1cccc(-c2nnn(Cc3c(F)cc(-c4nnc(C(F)F)o4)cc3F)n2)c1` [compound 54, 3-(2-(4-(5-(difluoromethyl)-1,3,4-oxadiazol-2-yl)-2,6-difluorobenzyl)-2H-tetrazol-5-yl)benzamide]?
Answer: IC50 [1]: 23 nM; IC50 [2]: > 200000 nM

Reference: patent US20230286970A1, “NOVEL OXADIAZOLE-BASED SELECTIVE HDAC6 INHIBITORS” (ITALFARMACO S.P.A., priority 2020, published 2023)
